Assay results taken from patent US20260209152A1, “Substituted Hydroxystilbene Compounds and Derivatives, Synthesis and Uses Thereof” (Kynan Duke IP, LLC, priority 2019, published 2026).
Where two headings read alike, the source gives them in different places.

What was measured:
Liver SNU-398 = test: CellTiter Glo cell viability assay; type: cell-based, human; conditions: for IC50: Homo sapiens
Method in brief: (§1)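 Cells were seeded at 1.7*10^3 cells/well in quadruplicate and treated with 18 two-fold dilutions from 5 μM (0.000038146–5 μM), or with 1, 2, 5, 10 and 20 μM. Viability was read by CellTiter Glo luminescence on days 1, 3 and 5, and IC50 came from nonlinear regression of RLU against log dose.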

Bladder T24 = test: CellTiter Glo cell viability assay; type: cell-based, human; conditions: for IC50: Homo sapiens
Method in brief: as §1

Pancreatic BxPC3 = test: CellTiter Glo cell viability assay; type: cell-based, human; conditions: for IC50: Homo sapiens
Method in brief: as §1

Pharynx FADU = test: CellTiter Glo cell viability assay; type: cell-based, human; conditions: for IC50: Homo sapiens
Method in brief: as §1

Bladder SCABER = test: CellTiter Glo cell viability assay; type: cell-based, human; conditions: for IC50: Homo sapiens
Method in brief: as §1

Kidney Caki-2 = test: CellTiter Glo cell viability assay; type: cell-based, human; conditions: for IC50: Homo sapiens
Method in brief: as §1

Lung NCI-H1573 = test: CellTiter Glo cell viability assay; type: cell-based, human; conditions: for IC50: Homo sapiens
Method in brief: as §1

Bladder UMUC_3 = test: CellTiter Glo cell viability assay; type: cell-based, human; conditions: for IC50: Homo sapiens
Method in brief: as §1

Ewing's Sarcoma HTB-166 = test: CellTiter Glo cell viability assay; type: cell-based, human; conditions: for IC50: Homo sapiens
Method in brief: as §1

Pharynx DETROIT = test: CellTiter Glo cell viability assay; type: cell-based, human; conditions: for IC50: Homo sapiens
Method in brief: as §1

Liver SNU-423 = test: CellTiter Glo cell viability assay; type: cell-based, human; conditions: for IC50: Homo sapiens
Method in brief: as §1

Bladder HT-1197 = test: CellTiter Glo cell viability assay; type: cell-based, human; conditions: for IC50: Homo sapiens
Method in brief: as §1

Tongue UPCI: SCC090 = test: CellTiter Glo cell viability assay; type: cell-based, human; conditions: for IC50: Homo sapiens
Method in brief: as §1

Lung NCI-H1437 = test: CellTiter Glo cell viability assay; type: cell-based, human; conditions: for IC50: Homo sapiens
Method in brief: as §1

Tongue CAL 27 = test: CellTiter Glo cell viability assay; type: cell-based, human; conditions: for IC50: Homo sapiens
Method in brief: as §1

Lung NCI-H2126 = test: CellTiter Glo cell viability assay; type: cell-based, human; conditions: for IC50: Homo sapiens
Method in brief: as §1

[1] = test system: Hypo-pharynx UPCI: SCC152; test: CellTiter Glo cell viability assay; type: cell-based, human; conditions: for IC50: Homo sapiens
Method in brief: as §1

GBM patient sample BNA99 = test: Ex vivo GBM 3D spheroid drug response (CellTiter-Glo 3D); type: cell-based, human; conditions: Homo sapiens, 96 h, 3D spheroids; 4 days post drug treatment
Text: (§2) This project involves an ex vivo drug response screen for 3 ROKiT Pharma test agents and Temozolomide in 3 previously dissociated and cryopreserved GBM samples.
(§3) • 2.1 Three previously processed GBM patient samples were chosen to be used in this study.

GBM patient sample BNB18 = test: as above; type: cell-based, human; conditions: Homo sapiens, 96 h, 3D spheroids; 4 days post drug treatment
Text: as §2, §3

GBM patient sample BNB04 = test: as above; type: cell-based, human; conditions: Homo sapiens, 96 h, 3D spheroids; 4 days post drug treatment
Text: as §2, §3

Pancreatic CAPAN-1 = test: CellTiter Glo cell viability assay; type: cell-based; conditions: Homo sapiens; Capan-1/HTB-79; 11 dilutions 3-0.00001 μM
[2] = SNU-398, 72 h, 3 Days of treatment, 18 2-fold dilutions 5-0.00003 μM, read-out: Average IC50
[3] = SNU-398/CRL-2233, 11 dilutions 3-0.00001 μM, read-out: IC50
[4] = 72 h, 3 Days of treatment, 18 2-fold dilutions 5-0.00003 μM, read-out: Average IC50
[5] = T24/HTB-4, 11 dilutions 3-0.00001 μM, read-out: IC50
[6] = BXPC-3, 72 h, 3 Days of treatment, 18 2-fold dilutions 5-0.00003 μM, read-out: Average IC50
[7] = BxPC-3/CRL-1687, 11 dilutions 3-0.00001 μM, read-out: IC50
[8] = FaDu, 72 h, 3 Days of treatment, 18 2-fold dilutions 5-0.00003 μM, read-out: Average IC50
[9] = Fadu/HTB-43, 11 dilutions 3-0.00001 μM, read-out: IC50
[10] = SCaBER, 72 h, 3 Days of treatment, 18 2-fold dilutions 5-0.00003 μM, read-out: Average IC50
[11] = SCaBER/HTB-3, 11 dilutions 3-0.00001 μM, read-out: IC50
[12] = CAKI-2, 72 h, 3 Days of treatment, 18 2-fold dilutions 5-0.00003 μM, read-out: Average IC50
[13] = Caki-2/HTB-47, 11 dilutions 3-0.00001 μM, read-out: IC50
[14] = NCI-H1573, 72 h, 3 Days of treatment, 18 2-fold dilutions 5-0.00003 μM, read-out: Average IC50
[15] = NCI-H1573/CRL-5877, 11 dilutions 3-0.00001 μM, read-out: IC50
[16] = UMUC3, 72 h, 3 Days of treatment, 18 2-fold dilutions 5-0.00003 μM, read-out: Average IC50
[17] = UMUC3, UM-UC-3/CRL-1749, 11 dilutions 3-0.00001 μM, read-out: IC50
[18] = RD-ES/HTB-166, 11 dilutions 3-0.00001 μM, read-out: IC50
[19] = Detroit 562/CCL-138, 11 dilutions 3-0.00001 μM, read-out: IC50
[20] = SNU-423, 72 h, 3 Days of treatment, 18 2-fold dilutions 5-0.00003 μM, read-out: Average IC50
[21] = SNU-423/CRL-2238, 11 dilutions 3-0.00001 μM, read-out: IC50
[22] = HT1197, 72 h, 3 Days of treatment, 18 2-fold dilutions 5-0.00003 μM, read-out: Average IC50
[23] = HT1197, HT-1197/CRL-1473, 11 dilutions 3-0.00001 μM, read-out: IC50
[24] = UPCI: SCC090/CRL-3239, 11 dilutions 3-0.00001 μM, read-out: IC50
[25] = NCI-H1437, 72 h, 3 Days of treatment, 18 2-fold dilutions 5-0.00003 μM, read-out: Average IC50
[26] = NCI-H1437/CRL-5872, 11 dilutions 3-0.00001 μM, read-out: IC50
[27] = CAL-27, 72 h, 3 Days of treatment, 18 2-fold dilutions 5-0.00003 μM, read-out: Average IC50
[28] = CAL 27/CRL-2095, 11 dilutions 3-0.00001 μM, read-out: IC50
[29] = NCI-H2126, 72 h, 3 Days of treatment, 18 2-fold dilutions 5-0.00003 μM, read-out: Average IC50
[30] = NCI-H2126/CCL-256, 11 dilutions 3-0.00001 μM, read-out: IC50
[31] = UPCI: SCC152/CRL-3240, 11 dilutions 3-0.00001 μM, read-out: IC50
[32] = IC50 of 1 [KYN-001] vs 8 [KYN-119], 3 Days

COc1cc(/C=C/c2cc(O)cc(OC)c2CC=C(C)C)ccc1O [Compound 1, (E)-3-(4-hydroxy-3-methoxystyryl)-5-methoxy-4-(3-methylbut-2-en-1-yl)phenol]
IC50 (Liver SNU-398; [2]): 42.9 nM
IC50 (Liver SNU-398; [3]): 208 nM
IC50 (Bladder T24; [4]): 129 nM
IC50 (Bladder T24; [5]): 182 nM
IC50 (Pancreatic BxPC3; [6]): 1060 nM
IC50 (Pancreatic BxPC3; [7]): 944 nM
IC50 (Pharynx FADU; [8]): 74.4 nM
IC50 (Pharynx FADU; [9]): 139 nM
IC50 (Bladder SCABER; [10]): 33.7 nM
IC50 (Bladder SCABER; [11]): 65 nM
IC50 (Kidney Caki-2; [12]): 1120 nM
IC50 (Kidney Caki-2; [13]): 426 nM
IC50 (Lung NCI-H1573; [14]): 217 nM
IC50 (Lung NCI-H1573; [15]): 273 nM
IC50 (Bladder UMUC_3; [16]): 31.3 nM
IC50 (Bladder UMUC_3; [17]): 333 nM
IC50 (Ewing's Sarcoma HTB-166; [4]): 257 nM
IC50 (Ewing's Sarcoma HTB-166; [18]): 310 nM
IC50 (Pharynx DETROIT; [4]): 1170 nM
IC50 (Pharynx DETROIT; [19]): 131 nM
IC50 (Liver SNU-423; [20]): 33.8 nM
IC50 (Liver SNU-423; [21]): 203 nM
IC50 (Bladder HT-1197; [22]): 258 nM
IC50 (Bladder HT-1197; [23]): 108 nM
IC50 (Tongue UPCI: SCC090; [4]): 90.1 nM
IC50 (Tongue UPCI: SCC090; [24]): 0.9 nM
IC50 (Lung NCI-H1437; [25]): 347 nM
IC50 (Lung NCI-H1437; [26]): 143 nM
IC50 (Tongue CAL 27; [27]): 56.8 nM
IC50 (Tongue CAL 27; [28]): 89.4 nM
IC50 (Lung NCI-H2126; [29]): 75.4 nM
IC50 (Lung NCI-H2126; [30]): 106 nM
IC50 [1, 4]: 46.3 nM
IC50 [1, 31]: 140 nM
IC50 (GBM patient sample BNA99): 15000 nM
IC50 (GBM patient sample BNB18): 1330 nM
IC50 (GBM patient sample BNB04): 10900 nM
IC50 (Pancreatic CAPAN-1): 2670 nM

CCOc1cc(O)cc(/C=C/c2ccc(O)c(OC)c2)c1CC=C(C)C [Compound 8, (E)-3-Ethoxy-5-(4-hydroxy-3-methoxystyryl)-4-(3-methylbut-2-en-1-yl)phenol]
IC50 (Liver SNU-398; [2]): 8.15 nM
IC50 (Liver SNU-398; [3]): 74.6 nM
Fold IC50 (Liver SNU-398; [32]): 5.3
IC50 (Bladder T24; [4]): 22.5 nM
IC50 (Bladder T24; [5]): 61.1 nM
Fold IC50 (Bladder T24; [32]): 5.8
IC50 (Pancreatic BxPC3; [6]): 355 nM
IC50 (Pancreatic BxPC3; [7]): 387 nM
Fold IC50 (Pancreatic BxPC3; [32]): 3.0
IC50 (Pharynx FADU; [8]): 37.1 nM
IC50 (Pharynx FADU; [9]): 54.1 nM
Fold IC50 (Pharynx FADU; [32]): 2.0
IC50 (Bladder SCABER; [10]): 10.1 nM
IC50 (Bladder SCABER; [11]): 27.3 nM
Fold IC50 (Bladder SCABER; [32]): 3.3
IC50 (Kidney Caki-2; [12]): 281 nM
IC50 (Kidney Caki-2; [13]): 524 nM
Fold IC50 (Kidney Caki-2; [32]): 4.0
IC50 (Lung NCI-H1573; [14]): 20.5 nM
IC50 (Lung NCI-H1573; [15]): 33.5 nM
Fold IC50 (Lung NCI-H1573; [32]): 11
IC50 (Bladder UMUC_3; [16]): 5.48 nM
IC50 (Bladder UMUC_3; [17]): 54.8 nM
Fold IC50 (Bladder UMUC_3; [32]): 5.7
IC50 (Ewing's Sarcoma HTB-166; [4]): 49.2 nM
IC50 (Ewing's Sarcoma HTB-166; [18]): 163 nM
Fold IC50 (Ewing's Sarcoma HTB-166; [32]): 5.2
IC50 (Pharynx DETROIT; [4]): 438 nM
IC50 (Pharynx DETROIT; [19]): 76.6 nM
Fold IC50 (Pharynx DETROIT; [32]): 2.7
IC50 (Liver SNU-423; [20]): 6.23 nM
IC50 (Liver SNU-423; [21]): 79.7 nM
Fold IC50 (Liver SNU-423; [32]): 5.4
IC50 (Bladder HT-1197; [22]): 11.5 nM
IC50 (Bladder HT-1197; [23]): 48.5 nM
Fold IC50 (Bladder HT-1197; [32]): 22
IC50 (Tongue UPCI: SCC090; [4]): 26 nM
IC50 (Tongue UPCI: SCC090; [24]): 0.5 nM
Fold IC50 (Tongue UPCI: SCC090; [32]): 3.5
IC50 (Lung NCI-H1437; [25]): 16.6 nM
IC50 (Lung NCI-H1437; [26]): 32.7 nM
Fold IC50 (Lung NCI-H1437; [32]): 21
IC50 (Tongue CAL 27; [27]): 38.3 nM
IC50 (Tongue CAL 27; [28]): 30.9 nM
Fold IC50 (Tongue CAL 27; [32]): 1.5
IC50 (Lung NCI-H2126; [29]): 1.73 nM
IC50 (Lung NCI-H2126; [30]): 33.1 nM
Fold IC50 (Lung NCI-H2126; [32]): 44
IC50 [1, 4]: 23 nM
IC50 [1, 31]: 54.9 nM
Fold IC50 [1, 32]: 2.0
IC50 (Pancreatic CAPAN-1): 2320 nM
